Measured values reported in patent US10463772B2, “Prostaglandin and prostamide drug delivery systems and intraocular therapeutic uses thereof” (ALLERGAN, INC., priority 2008, dated 2019).

Assays:
[1] = cited from earlier work
[2] = Heat stability of latanoprost (biological activity); format: physicochemical; settings: on heating

Question: What does the source list for `CC(C)OC(=O)CCC/C=C\C[C@@H]1[C@@H](CC[C@@H](O)CCc2ccccc2)[C@H](O)C[C@@H]1O` [latanoprost]?
Answer: Solubility in acetone, ethanol, ethyl acetate, isopropanol, methanol and octanol [1]: freely soluble; Solubility in acetonitrile [1]: very soluble; Solubility in water [1]: practically insoluble; Temperature above which latanoprost begins to lose biological activity [2]: about 56 °C
